Here are results for six molecules from patent EP0917465B1, “ANTIMALARIAL AND ANTI-BABESIOSIS AGENTS AND PHARMACEUTICAL COMPOSITIONS CONTAINING THE SAME AGENTS” (priority 1996, dated 1998).

Where two headings read alike, the source gives them in different places.

For one series, the system named is Plasmodium falciparum. Kind of series: In vitro antimalarial activity, (3H) hypoxanthine incorporation in infected human erythrocytes (Desjardins test). Type of series: cell-based. The conditions noted are these: Plasmodium falciparum, Erythrocyte, read-out: IC50 exprimée en micromoles. The text has this:
L'activité antipaludéenne des dérivés selon les exemples précédents est testée sur l'humain infesté par Plasmodium falciparum. Le produit à tester est mis en contact avec les érythrocytes humains infectés pendant 24 heures. Un précurseur radioactif d'acides nucléiques l'Hypoxanthine (^3H) est ensuite ajouté. Le précurseur ne s'incorpore que dans les cellules infectées par un parasite en croissance, c'est à dire dans les cellules que la drogue n'aura pas affectées.
L'aptitude ou non à incorporer le précurseur reflète donc la viabilité des cellules impaludées. La durée des tests est de 60 à 70 heures ( test de DESJARDINS R.E. , CANFIELD C.J., HATNES J.D. et CHULAY J.D., Antimicrob. Agents Chemother. 1979, 16, p 710-718 ). Les résultats sont consignés dans le tableau I ci-après, sous forme de IC50 (ou DE50), soit la concentration de produit dans le milieu expérimental capable d'inhiber in vitro la croissance du parasite d'une valeur de 50%.

For series [1], the system named is Babesia Bovis, Babesia Canis. Kind of series: In vitro anti-Babesia activity, (3H) hypoxanthine incorporation. Conditions: read-out: Activité/ Babesia à 10 millimole. Type of series: cell-based. The source says:
Le procédé de criblage d'activité anti-malaria, basé sur l'incorporation de l'(^3H) Hypoxanthine par le parasite, est utilisé pour tester l'activité anti-métabolique de tels composés sur Babesia Bovis, Babesia Canis. Une relation étroite est trouvée entre le taux d'incorporation de (^3H) Hypoxanthine dans une mesure standard et le pourcentage de cellules parasitées, déterminé par examen microscopique. Cette activité métabolique est quantifiée et évaluée dans le tableau ci-dessous par la cotation +++ pour les molécules affichant dans le test une inhibition de 50 % de l'incorporation de (^3H) Hypoxanthine (ID 50), ces molécules étant à une concentration inférieure ou égale à 0,01 Micromolaire. La cotation est de ++ pour la même activité à une concentration de 0,01 à 0.1 micromolaire et enfin de + pour une concentration inférieure ou égale à 1 Micromolaire.

For series [2], the system named is Plasmodium vinckei, petteri, ou chabaudi. Put plainly: Therapeutic index in infected mice: 4-day Peters test activity versus semi-chronic toxicity (DL 50). Type of series: in vivo, souris Swiss mâles. The conditions noted are these: ratio of activity to toxicity under identical conditions, intraperitoneal or subcutaneous, twice a day for 4 days. The text has this: (§1) Afin d'évaluer l'index thérapeutique des divers produits, on a mesuré l'activité de ceux-ci dans un test in vivo et comparé à la toxicité aiguë chez l'animal . Cette activité est mesurée suivant le test décrit par PETERS W. ( Chemotherapy and Drug résistance in Malaria, 1970). Un composé est administré pendant quatre jours consécutifs à des souris préalablement impaludées par Plasmodium vinckei, petteri, ou chabaudi, ledit composé étant dissous dans une solution de NaCI à 0.9 %. Les préparations sont ainsi administrées par voie intrapéritonéale ou par voie sous-cutanée à des souris Swiss mâles infectées par voie IV, avec Plasmodium petterei ou Plasmodium chabaudi (10^6 cellules infectées ). Le composé est administré deux fois par jour pendant 4 jours consécutifs, la première injection étant pratiquée 2 heures après l'infestation et la deuxième, 10 heures après. La parasitémie est déterminée par un frottis, le jour suivant la fin du traitement. La toxicité est mesurée in vivo selon la même méthode, les animaux ayant reçu dans les conditions d'administration ci-dessus, 2 injections par jour pendant 4 jours ( toxicité semi chronique). Les résultats sont exprimés sous forme de DL 50, soit la dose ayant entraîné la mort de 50% des animaux.
(§2) Les résultats des essais sont résumés dans le tableau I ci-après sous forme d'index thérapeutique, soit le rapport de l'activité à la toxicité mésurées dans des conditions identiques comme décrit ci-dessus.

Assay in series [3]: as above
It is filed as in vivo, souris Swiss mâles. Conditions: mouse, in vivo, ratio of activity to toxicity under identical conditions, intraperitoneal or subcutaneous, twice a day for 4 days, read-out: Index thérapeutique.
Text: as §1, §2

The mark [4] stands for this setting: concentration inhibiting in vitro parasite growth by 50 %, human erythrocytes infected with Plasmodium falciparum, 24 h contact, test lasts 60 to 70 h.
The mark [5] stands for this setting: class of ID 50 for (3H) hypoxanthine incorporation.

As to `CC[N+](C)(CC)CCCCCCCCCCCCCCCCCC[N+](C)(CC)CC` [EXEMPLE 14, N,N'-dimethyl-N,N,N',N'-tetraethyl-1,18 octadecanediaminium, dibromure], the IC50 with Plasmodium falciparum is 0.04 nM; in series [1], less than 10 nM. Besides, the “Index thérapeutique” value in series [2] came to 14.
In the case of `C[N+]1(CCCCCCCCCCCCCC[N+]2(C)CCCC2)CCCC1` [EXEMPLE 16, 1,1'-(1,14-tetradecanediyl) bis (1-methylpyrrolidinium) dibromure], the IC50 in the series with Plasmodium falciparum was 0.9 nM; in series [1], less than 10 nM. In addition, the “Index thérapeutique” value in series [2] was found to be 8.
Turning to `C[N+]1(CCCCCCCCCCCCCCCC[N+]2(C)CCCC2CO)CCCC1CO` (stereo not drawn) [EXEMPLE 18, 1,1'-(1, 16-hexadecanediyl) bis (2-hydroxymethyl-1-methylpyrrolidinium) dibromure], the IC50 in the series with Plasmodium falciparum (setting [4]) is 1 nM; in series [1] (setting [5]) it was less than 10 nM. Besides, in series [3], the selectivity ratio is 22.
As for `C[N+]1(CCCCCCCCCCCCCCCC[N+]2(C)CCCC(CO)C2)CCCC(CO)C1` (stereo not drawn) [EXEMPLE 20, 1,1'-(1,16-hexadecanediyl) bis (1-methyl-3hydroxy methyl piperidinium) dibromure], the IC50 in the series on Plasmodium falciparum (setting [4]) is 0.3 nM; in series [1] (setting [5]), less than 10 nM. The selectivity ratio in series [3] was 17.
For `C=CC[N+](C)(C)CCCCCCCCCCCCCC[N+](C)(C)CC=C` [EXEMPLE 25, N,N'-di (2-propenyl)-N,N,N',N'-tetramethyl-1,14 tetradecane diaminium dibromure], the IC50 with Plasmodium falciparum was 5 nM; in series [1], less than 10 nM. In addition, the “Index thérapeutique” value in series [2] is 15.
The like results for `C#CCC[N+](C)(C)CCCCCCCCCCCCCC[N+](C)(C)CCC#C` [EXEMPLE 26, N,N'-di (3-butynyl)-N, N, N', N'-tetramethyl 1,14-tetradecanediaminium dibromure] were, in that order, 40 nM, 10 to 100 nM and 45.
